Measured values taken from patent publication US9861604B2, “Coriolus versicolor extracts, methods of isolating biologically-active compounds, and uses thereof” (priority 2012, dated 2018).

How the values were obtained:
Assay type in all cases: cell-based, human
MMP-3 [1] = assay: TNF-α induced MMP-3 mRNA level in T98G cells (TaqMan); conditions: 10, 25 and 50 μg/ml 18 hr, then TNF-α 10 ng/ml 3 hr, FIG. 16
Description: Glioblastoma (T98G, brain cells) cells were pretreated with different batches of ethanol extract or purified compounds of C. versicolor for 18 hr, and then treated with recombinant human TNF-α (10 ng/ml) for another 3 hr. Total RNA extraction was performed by TRIzol reagent (Invitrogen) according to the manufacturer's instructions. Total RNA was reverse transcribed by Superscript II reverse transcriptase (Invitrogen) with oligo (dT) primers. MMP-3 mRNA levels were analyzed by TaqMan Gene Expression Assays (Applied Biosystems).
Briefly, glioblastoma (T98G; brain cells) cells were pretreated with MPUB-EtOH at different concentrations (1, 10 and 50 ug/ml) for 18 hrs, and then treated with recombinant human TNFα (10 ng/ml) for 3 hrs. MMP-3 mRNA levels were analyzed by TaqMan Gene Expression Assays. […] A p value of <0.05 (*) was considered statistically significant.

MMP-3 [2] = assay: TNF-α induced MMP-3 protein expression in T98G cells (ELISA); conditions: 10, 25 and 50 μg/ml 18 hr, then TNF-α 10 ng/ml 24 hr, FIG. 17
Description: T98G cells were pretreated with different batches of ethanol extract of C. versicolor for 18 hr, and then treated with recombinant human TNF-α (10 ng/ml) for another 24 hr. Protein levels of MMP-3 in the cell culture supernatants were analyzed by enzyme-linked immunosorbent assays (ELISA) using commercially available assay kits (R&D Systems).

T98G cells = assay: MTT assay on T98G cells; conditions: 10, 25 and 50 μg/ml, time course of 48 hr, FIG. 19
Description: T98G cells were incubated with different batches of ethanol extract or purified compounds of C. versicolor for 48 hr. After treatment, MTT (3-[4,5-dimethylthiazol-2-yl]-2,5-di-phenyltetrazolim bromide) (Sigma) was added to the medium at a final concentration of 1 mg/ml and followed by 2 hr incubation at 37° C. MTT formazan formed was then dissolved in 200 μl of isopropanol and the absorbance of the supernatant was measured at 570 nm using a 96-well microplate reader.

[3] = tested on: Glioblastoma (T98G) cells; assay: Matrigel Invasion Chamber tumor cell invasion assay, T98G; conditions: 25 μg/ml 18 hr, invasion 24 hr; FIG. 22
Description: Cell invasiveness was studied using BD BioCoat™ Matrigel™ Invasion Chamber (BD Biosciences). T98G cells suspended in MEM containing 1% FBS, 1% penicillin-streptomycin and 1% sodium pyruvate were seeded overnight on top of gel in each chamber. Bicarbonate based culture medium was added into the bottom wells of the plate. After incubation, the cells were treated with ethanol extract of C. versicolor/Cove-1 for 18 hr. The chambers were then transferred to a new plate with each well containing MEM supplemented with 10% FBS. Cells were allowed to invade through the matrices at 37° C. for another 24 hr. After the invasion assay, invaded cells on the lower surface of the chamber were fixed with 100% methanol for 2 min, and stained with Crystal Violet. The number of invading cells was quantified by counting under a light microscope.
Specifically, the effect of C. versicolor on cancer cell invasiveness was studied using a Matrigel Invasion Chamber. […] The number of invading cells was quantified by counting under a light microscope.
Specifically, the effect of 9-KODE methyl ester on cell invasiveness was studied using Matrigel Invasion Chamber. Glioblastoma (T98G) cells were treated with 9-KODE methyl ester for 18 hr, and then the cells were allowed to invade through the matrices for another 24 hr. The number of invading cells was quantified by counting under a light microscope.

CCCCC/C=C/C=C/C(=O)CCCCCCCC(=O)OC [Cove-1, 9-oxo-10E,12E-octadecadienoic acid methyl ester]
TNF-α induced MMP-3 mRNA level (MMP-3 [1]): suppressed TNF-α induced MMP-3 mRNA level
TNF-α induced MMP-3 protein expression (MMP-3 [2]): inhibited TNF-α induced MMP-3 protein expression
metabolic activities of the cells (MTT) (T98G cells): no significant differences in the metabolic activities
T98G cell invasiveness (number of invading cells) [3]: reduced the invasiveness of T98G significantly
